Measured values published in US20240118281A1, “ANTICANCER COMPOUNDS AND USES THEREOF” (University of Florida Research Foundation, Incorporated, priority 2021, published 2024).

Assays:
[1] = test system: MDA-MB-468 cells; assay: 3H-Leucine protein synthesis assay; type: cell-based; details: 24 h, FIG. 9A
Experimental: Protein synthesis assays utilizing ^3H-Leucine purchased from Perkin Elmer (Waltham, MA) were carried out as detailed previously (Law B K, et al. J Biol Chem 2000; 275: 10796-10801; Law B K, et al. J Biol Chem 2000; 275: 38261-38267).

[2] = test system: HER2+ BT474 xenograft tumors; assay: BT474 xenograft tumor study, H&E staining of mammary fat pads/tumors; type: in vivo, mice; details: 20 mg/kg intraperitoneal, four consecutive days; vehicle tumors showed no necrosis
Experimental: Breast cancer liver metastasis was initiated in NOD-SCID-gamma (NSG) mice obtained from Jackson Laboratories (Bar Harbor, ME) by injecting 1×10^6 cancer cells into the #4 mammary fat pads as described previously (Wang M, et al. Cell Death Discovery 2019; 5: 153). Mice bearing HCI-001/LVM2 breast tumors were treated once daily for four consecutive days with 20 mg/kg tcyDTDO by oral gavage and livers were collected. Animals bearing HER2+ BT474 tumors were treated with the vehicle or 20 mg/kg dMtcyDTDO or dFtcyDTDO by intraperitoneal injection for four consecutive days. Tissue samples fixed in 4% paraformaldehyde/PBS and paraffin-embedded were sectioned and stained with hematoxylin and eosin (H&E) by the University of Florida Molecular Pathology Core (https://molecular.pathology.ufl.edu/).

[3] = test system: DR5; assay: Disulfide bond-mediated oligomerization and levels, non-reducing immunoblot; type: cell-based
Excerpt: (§1) The BT20, BT474, BT549, MCF7, MDA-MB-231, MDA-MB-436, MDA-MB-468, HCC1143, HCC1500, HCC1569, HCC1937, HCC1954, Hs578t, and T47D cells lines were purchased from American Type Culture Collection (ATCC) (Manassas, VA). The HCI-001 cell line was derived from an ER-/PR-/HER2- patient-derived xenograft originally isolated from a patient as described previously (DeRose Y S, et al. Nat Med 2011; 17: 1514-1520). The HCI-001/LVM2 model was derived from the HCI-001 cell line by performing two rounds of selection for liver metastasis, as described previously (Wang M, et al. Cell Death Discovery 2019; 5: 153). Cell lines were grown in Dulbecco's Modified Eagle's Medium (GE Healthcare Life Sciences, Logan, UT) containing 10% fetal bovine serum (10% FBS—DMEM) in a humidified incubator with 5% CO2 at 37° C. Cell lysates were prepared as described previously (Law B K, et al. Mol Cell Biol. 2002; 22: 8184-8198). Immunoblot analysis was performed utilizing the following antibodies purchased from Cell Signaling Technology (Beverly, MA) [Akt, #4691; P-Akt[T308], #13038; ATF4, #11815; CHOP, #2895; Cleaved Caspase 8, #9496; DR4, #42533; DR5, #8074; EGFR, #4267; GRP78, #3177; HER3, #4754; PARP, #9532; PDIA1, #3501; XBP1s, #12782], from Santa Cruz Biotechnology (Santa Cruz, CA) [Actin, sc-47778; AGR2/3, sc-376653; AGR3, sc-390940; ERO1-a, sc-100805; and ERp44, sc-393687], or from Rockland Immunochemicals, Inc. (Limerick, PA), Streptavidin-Alkaline Phosphatase conjugated (SA-AP), S000-05.
(§2) To assess protein disulfide bond-mediated oligomerization, cells were treated with DDAs for 24 h in 10% FBS-DMEM. Cells were subsequently scraped directly into the media and pelleted by centrifugation. Cells were extracted directly into boiling 2×-SDS-Sample Buffer containing 100 mM NEM and boiled for 10 min. Samples were sonicated, followed by centrifugation for 20 min at room temperature. Samples were subsequently analyzed by SDS-PAGE and immunoblot.

[4] = molecular target: T1, ERp44 (Homo sapiens, UniProt Q9BS26); assay: In vitro binding assay with recombinant purified ERp44; details: pre-incubation with a molar excess, FIG. 3D
T1 sequence (Q9BS26 30-406): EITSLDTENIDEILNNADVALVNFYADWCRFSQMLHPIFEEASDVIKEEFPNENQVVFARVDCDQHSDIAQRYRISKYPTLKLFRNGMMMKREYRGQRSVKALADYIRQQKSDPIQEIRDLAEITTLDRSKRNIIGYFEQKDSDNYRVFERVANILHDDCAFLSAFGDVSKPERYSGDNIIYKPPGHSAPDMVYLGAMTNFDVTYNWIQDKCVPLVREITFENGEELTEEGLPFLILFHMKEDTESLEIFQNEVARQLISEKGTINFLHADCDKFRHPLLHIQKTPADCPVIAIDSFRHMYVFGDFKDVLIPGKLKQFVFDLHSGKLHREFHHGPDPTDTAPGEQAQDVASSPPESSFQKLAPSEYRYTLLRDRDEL
Experimental: Purified His6-AGR2 or His6-AGR2 C81S, as prepared above, or His6-AGR2 (PRO-580) or His6-AGR3 (PRO-242) obtained from ProSpec (New Brunswick NJ) were incubated with or without varying concentrations of the unlabeled DDA competitors, tcyDTDO or dMtcyDTDO, and 30 μM Biotin-GlyPyrDTDO or Biotin-PyrDTDO in buffer (20 mM HEPES (pH 7.4), 1 mM EDTA, 1 mM EGTA, 5% Glycerol, 1 nM Microcystin, 1 mM Na3VO4, and 40 mM Na2H2P2O7) containing 1% Triton-X 100 for 30 min at 37° C. […] Therefore, the two probes were used interchangeably. Reactions were stopped by boiling the samples in 2×-SDS-Sample Buffer containing 100 mM NEM for 10 min. Biotin-DDA labeling of protein was verified by blotting with Streptavidin-Alkaline Phosphatase (Rockland Immunochemicals, Inc., Limerick, PA). ERp44 (PRO-547) and PDIA1 (ENZ-262) were obtained from ProSpec and used in experiments examining the binding of these proteins to Biotin-PyrDTDO.

[5] = molecular target: T1, ERp44; assay: ERp44 disulfide bonding with client proteins, non-reducing immunoblot; type: cell-based; design: endogenous in cells; host or cells: MDA-MB-468; details: MDA-MB-468 cells
Experimental: as §2

[6] = test system: ERAP1; assay: ERAP1 retention/secretion in MDA-MB-468 cells, immunoblot; type: cell-based; details: MDA-MB-468 cells
Excerpt: as §1, §2

[7] = test system: ERAP1; assay: ERAP1 secretion in A431 skin cancer cells, immunoblot; type: cell-based; details: 5 μM, 24 h
[8] = MDA-MB-468 cells, 24 h, compared with tcyDTDO, FIG. 1E left

## CO[C@H]1C[C@@H]2CS(=O)(=O)SC[C@H]2C[C@@H]1OC [dMtcyDTDO, dimethoxy-tcyDTDO]
[1]
  Potency in protein synthesis assay relative to tcyDTDO: two-fold greater potency than tcyDTDO
[2]
  Tumors in mammary fat pads, H&E histology: tumors that had undergone coagulation necrosis
[3]; 0, 1.25, 2.5, 5 uM, FIG. 1F
  Levels and oligomerization of DR5, densitometry: increases the levels of both oligomeric and monomeric forms of DR5
[3]; MDA-MB-468 cells, 24 h, FIG. 1E right
  Concentration at which oligomerization of DR5 was observed: 1.25 µM
[3]; [8]
  DR4/5 oligomerization at the same concentration (DR5): more DR4/5 oligomerization
  DR5 levels at the same concentration: higher DR5 levels
[4]
  Block of Biotin-PyrDTDO biotinylation of ERp44: biotinylation was blocked
[5]; 5 μM, 24 h, FIG. 3E
  Disulfide bonding of ERp44 with client proteins: reduces disulfide bonding of ERp44 and PDIA1 with multiple proteins
  Monomeric levels of ERp44: minimal effect on monomeric levels
[5]; FIG. 4D
  ERp44 binding to client proteins, quantitation across four experiments: decreased ERAP1 levels and ERp44 binding to client proteins in a statistically significant manner
[6]; 5 μM, 24 h, FIG. 4F upper
  ERAP1 levels in the culture medium: dramatically increased
[6]; 5 μM, 24 h, N=3, FIG. 4F lower
  ERAP1 secretion, statistical analysis: induced ERAP1 secretion in a statistically significant manner
[6]; 24 h, FIG. 4B
  Cellular ERAP1 levels, immunoblot: decreased cellular ERAP1 levels
[6]; FIG. 4C
  Cellular ERAP1 levels, quantitation across four experiments: decreased ERAP1 levels and ERp44 binding to client proteins in a statistically significant manner
[7]; FIG. 4F upper
  ERAP1 levels in the culture medium: dramatically increased
[7]; N=3, FIG. 4F lower
  ERAP1 secretion, statistical analysis: induced ERAP1 secretion in a statistically significant manner
